Measurements: US8124654B2, “Derivatives of hypoestoxide and related compounds” (Immune Modulation, Inc., priority 2008, dated 2012)

Experiments:
[1] = system: P. falciparum CQ-Sensitive (3D7); assay: In vitro malaria parasite development, 3H-hypoxanthine uptake, CQ-sensitive strain; assay type: cell-based; details: for IC50: 48 h exposure from ring stage, 3H-hypoxanthine uptake, geometric mean
Experimental: (§1) Parasite cultures were exposed to different concentrations of Formula IV or hypoestoxide (from 100× stocks in DMSO) for 48 h, beginning at the ring stage. Concentrations yielding 50% inhibition (IC50) were extrapolated from plots of mean percent negative control activity over inhibitor concentration as measured by the uptake of ^3H-hypoxanthine. Data was analyzed after logarithmic transformation and expressed as the geometric mean IC50 and 95% confidence intervals.
(§2) Other anti-parasitic agents such as sesquiterpene artemisinin, chloroquine, mixtures thereof, and the like, can also be administered in appropriate doses along with the compounds of formula I-IV.

[2] = system: P. berghei berghei (EI strain); assay: In vivo effect in malaria-infected mice (blood parasitemia); details: female mice, 5 mg/Kg oral once daily for 3 days; Giemsa-stained blood smears
Experimental: Five female mice per group were infected i.p. with 1×10^5P. berghei berghei (EI strain) parasitized RBCs and 3 days later, oral therapy was started at 5 mg/Kg once daily with either Formula IV or Chloroquine for 3 days. […], blood parasitemia was evaluated on each mouse on Giemsa-stained smears.

[3] = system: P. falciparum CQ-Resistant (W2 MR4); assay: In vitro malaria parasite development, 3H-hypoxanthine uptake, CQ-resistant strain; assay type: cell-based; details: for IC50: 48 h exposure from ring stage, 3H-hypoxanthine uptake, geometric mean
Experimental: as §1, §2

B16F1 melanocytes = assay: Inhibition of lung colonization of B16F1 melanocytes in mice; assay type: in vivo, C57BL/6 Mice; details: 5 mg/Kg oral once daily for 10 days; lungs counted on day 16; versus vehicle control
Experimental: 1×10^5 melanoma cells were injected intravenously into the lateral tail vein of each of 30 mice. Before treatment, mice were randomized into six groups of 5 mice per group. Treatment began one hour after intravenous inoculation of the tumor cells. Drugs, at 5 mg/Kg were administered via oral route, once daily for 10 days. Treatment was stopped on day 10. On day 16, lungs were removed and fixed in 10% formaldehyde. The surface melanoma colonies were counted for each lung and the means were established for each group. The mean for each group was used to calculate % inhibition based on the vehicle control.

IL-6 production = IL-6 production in LPS-stimulated human peripheral blood macrophages (ELISA); assay type: cell-based
Source text: At the end of 24-hour culture, supernatants were removed and tested for the presence of IL-6 by enzymne-linked immunosorbent assay.

IL-1β production = assay: Inhibition of IL-1β production; assay type: cell-based
IL-12 production = assay: Inhibition of IL-12 production; assay type: cell-based
TNF-α production = assay: Inhibition of TNF-α production; assay type: cell-based
[4] = ratio of IC50 versus hypoestoxide

Compound: 12,18-dihydrohypoestoxide [Formula IV]
- IC50 [1]: 1.4 µM
- times more active than hypoestoxide against the CQ-sensitive strain [1, 4]: about 7 times
- Reduction of Parasitemia (%) [2]: 92%
- IC50 [3]: 0.12 µM
- times more active than the parent hypoestoxide against the CQ-resistant strain [3, 4]: 88 times
- Inhibition (%) of lung melanoma colonies (B16F1 melanocytes): 65%

Compound: CCN(CC)CCCC(C)Nc1ccnc2cc(Cl)ccc12 (stereo not shown) [Chloroquine]
- Reduction of Parasitemia (%) [2]: 96%

Compound: C=C1C(=O)C[C@H]2C[C@@H]3O[C@@]3(C)CC[C@@H]3O[C@@]3(C)C[C@@H](OC(C)=O)[C@H]1C2(C)C [Hypoestoxide, hypoestoxide]
- Inhibition (%) of IL-6 production (IL-6 production; 10 μM, LPS 3 μg/ml, 24 h): 96%
- IL-6 (IL-6 production; 10 μM, LPS 3 μg/ml, 24 h culture supernatant, LPS alone 1200 pg/ml): 50 pg/mL
- inhibition of IL-6 (in words) (IL-6 production; statement of the summary, no conditions given): inhibits
- IC50 [1]: 10 µM
- inhibition of IL-1β production (in words) (IL-1β production): inhibits
- inhibition of IL-12 production (in words) (IL-12 production): inhibits
- IC50 [3]: 10.6 µM
- Inhibition (%) of lung melanoma colonies (B16F1 melanocytes): 70%
- inhibition of TNF-α production (in words) (TNF-α production): inhibits
